Earlier results in patent publication US20220071922A1, “DELIVERY OF HEALTH BENEFITS THROUGH COMPONENT FORMULATION” (Clear Lake Research, LLC, priority 2018, published 2022).

What was measured:
CB2 receptors = CB2 receptors (Homo sapiens, UniProt P34972); conditions: estimated; times the affinity of CBD
[1] = applied topically
[2] = phytocannabinoids interact with oxygen; without nitrogen overlay

CB2 receptors, sequence (P34972 whole entry): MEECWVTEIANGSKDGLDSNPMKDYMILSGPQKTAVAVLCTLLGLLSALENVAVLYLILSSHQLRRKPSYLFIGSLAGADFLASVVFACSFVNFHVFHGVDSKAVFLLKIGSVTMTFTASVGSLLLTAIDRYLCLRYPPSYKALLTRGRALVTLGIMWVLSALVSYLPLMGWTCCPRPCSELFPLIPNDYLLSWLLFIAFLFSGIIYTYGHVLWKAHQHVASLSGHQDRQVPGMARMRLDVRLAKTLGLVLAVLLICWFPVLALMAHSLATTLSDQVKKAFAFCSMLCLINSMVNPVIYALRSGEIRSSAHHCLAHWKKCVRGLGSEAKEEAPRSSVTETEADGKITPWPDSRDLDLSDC

| Structure (SMILES) | affinity relative to CBD (CB2 receptors) | time to significant pain relief impact [1] | shelf life [2] |
| --- | --- | --- | --- |
| CCCCC/C=C\C/C=C\CCCCCCCC(=O)OC(CO)CO [2-Lineoleoyl-glycerol] | ~1,000 times |  |  |
| CCCCCCCCCCCCCCCC(=O)OC(CO)CO [2-Palmitolyl-glycerol] | ~1,000 times |  |  |
| C=C(C)[C@@H]1CCC(C)=C[C@H]1c1c(O)cc(CCCCC)cc1O [CBD, cannabidiol] |  | about 30 minutes | about six |
